The text below walks through data of the supplement of paper PMC10307832.

Test in all cases: relative viability (nuclei count vs DMSO), 5 days (fraction); higher = more cells survive
Compound in the assay “AZ505 + Alpelisib”: C1CCC(CC1)N(CCNCCC2=C3C(=C(C=C2)O)NC(=O)CO3)C(=O)CCNCCC4=CC(=C(C=C4)Cl)Cl [AZ505] + Cc1nc(NC(=O)N2CCC[C@H]2C(N)=O)sc1-c1ccnc(C(C)(C)C(F)(F)F)c1 [Alpelisib] (partner 2 µM)
The method, boiled down:
(§1)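 The day after seeding in 1536-well plates, lung cancer cell lines were treated by pin tool with a single drug, or with a fixed anchor-drug dose together with five library-drug doses (not always all listed) in √10 steps. After 5 days, a combined fix-and-stain solution (final 0.05% Triton X-100, 1% formaldehyde, 1 ug/ml Hoechst) was added. Nuclei counted on 4× images gave relative viability as treated counts over vehicle counts, reported as the median of duplicate plates.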

Compound in the assay “Dactolisib + Pemetrexed”: Cn1c(=O)n(-c2ccc(C(C)(C)C#N)cc2)c2c3cc(-c4cnc5ccccc5c4)ccc3ncc21 [Dactolisib] + Nc1nc2[nH]cc(CCc3ccc(C(=O)N[C@@H](CCC(=O)O)C(=O)O)cc3)c2c(=O)[nH]1 [Pemetrexed] (partner 0.2 µM)
The essentials: as §1

Compound in a further assay: C1CCC(CC1)N(CCNCCC2=C3C(=C(C=C2)O)NC(=O)CO3)C(=O)CCNCCC4=CC(=C(C=C4)Cl)Cl [AZ505]
The essentials: (§2)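 Five library-drug doses, separated by factors of √10, were pinned into 1536-well plates holding lung cancer cell lines after an overnight stay at 37 °C. Cells were fixed, permeabilised and Hoechst-stained in one step after 5 days without medium change, then imaged at 4×. Viability compares treated-well with vehicle-well nuclei, counted in MetaXpress, as a median across plates. Passing plates had control CV below 25% and at least one doubling.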

Compound in another assay: Cn1c(=O)n(-c2ccc(C(C)(C)C#N)cc2)c2c3cc(-c4cnc5ccccc5c4)ccc3ncc21 [Dactolisib]
The essentials:
as §2

Regarding NCI-H596, the relative viability stood at 0.483 in the assay with AZ505 + Alpelisib (first compound 0.08 µM); 0.453 in the assay with AZ505 + Alpelisib (first compound 0.253 µM); 0.49 in the assay with AZ505 + Alpelisib (first compound 0.8 µM); 0.626 with AZ505 + Alpelisib (first compound 2.53 µM); 0.52 in the assay with AZ505 + Alpelisib (first compound 8 µM); 0.457 with Dactolisib + Pemetrexed (first compound 0.002 µM). In addition, the relative viability in the assay with Dactolisib + Pemetrexed (first compound 0.006325 µM) amounted to 0.428; in the assay with Dactolisib + Pemetrexed (first compound 0.02 µM) it was 0.513; with Dactolisib + Pemetrexed (first compound 0.06325 µM), 0.41; in the assay with Dactolisib + Pemetrexed (first compound 0.2 µM) it was 0.401; in the assay with AZ505 (0.08 µM), 0.888; with AZ505 (0.253 µM) it was 0.784. Also, the relative viability turned out to be 0.972 in the assay with AZ505 (0.8 µM); 0.955 with AZ505 (2.53 µM); 0.957 with AZ505 (8 µM); 1.09 with Dactolisib (0.002 µM); 0.91 with Dactolisib (0.006325 µM); 0.886 with Dactolisib (0.02 µM). Moreover, the results for the relative viability with Dactolisib (0.06325 µM) and in the assay with Dactolisib (0.2 µM) were 0.558 and 0.409, respectively.

With A-427, the relative viability with AZ505 + Alpelisib (first compound 0.08 µM) was found to be 1.08; with AZ505 + Alpelisib (first compound 0.253 µM) it was 1.11; with AZ505 + Alpelisib (first compound 0.8 µM), 1.04; in the assay with AZ505 + Alpelisib (first compound 2.53 µM) it was 1.01; in the assay with AZ505 + Alpelisib (first compound 8 µM), 1.08; with Dactolisib + Pemetrexed (first compound 0.002 µM), 1.09. Moreover, the relative viability amounted to 1.03 in the assay with Dactolisib + Pemetrexed (first compound 0.006325 µM); 0.968 in the assay with Dactolisib + Pemetrexed (first compound 0.02 µM); 0.8 with Dactolisib + Pemetrexed (first compound 0.06325 µM); 0.644 with Dactolisib + Pemetrexed (first compound 0.2 µM); 0.932 with AZ505 (0.08 µM); 0.958 in the assay with AZ505 (0.253 µM). Besides, the relative viability in the assay with AZ505 (0.8 µM) came out at 0.886; with AZ505 (2.53 µM), 1.08; with AZ505 (8 µM) it was 0.99; in the assay with Dactolisib (0.002 µM) it was 1.1; with Dactolisib (0.006325 µM), 0.908; in the assay with Dactolisib (0.02 µM), 0.936. Also, the results for the relative viability with Dactolisib (0.06325 µM) and in the assay with Dactolisib (0.2 µM) were 0.572 and 0.586, respectively.

As for EMC-BAC-2, the relative viability was determined as 0.718 with AZ505 + Alpelisib (first compound 0.08 µM); 0.759 in the assay with AZ505 + Alpelisib (first compound 0.253 µM); 0.696 in the assay with AZ505 + Alpelisib (first compound 0.8 µM); 0.761 with AZ505 + Alpelisib (first compound 2.53 µM); 0.831 in the assay with AZ505 + Alpelisib (first compound 8 µM); 0.424 in the assay with Dactolisib + Pemetrexed (first compound 0.002 µM). The relative viability in the assay with Dactolisib + Pemetrexed (first compound 0.006325 µM) worked out at 0.39; with Dactolisib + Pemetrexed (first compound 0.02 µM), 0.448; with Dactolisib + Pemetrexed (first compound 0.06325 µM), 0.456; in the assay with Dactolisib + Pemetrexed (first compound 0.2 µM), 0.416; in the assay with AZ505 (0.08 µM), 0.948; with AZ505 (0.253 µM) it was 0.789. Further, the relative viability was 0.923 in the assay with AZ505 (0.8 µM); 1.03 with AZ505 (2.53 µM); 0.987 with AZ505 (8 µM); 1.07 in the assay with Dactolisib (0.002 µM); 0.924 with Dactolisib (0.006325 µM); 0.88 with Dactolisib (0.02 µM). Besides, the relative viability in the assay with Dactolisib (0.06325 µM) is 0.636; with Dactolisib (0.2 µM), 0.494.

Take NCI-H441: the relative viability with AZ505 + Alpelisib (first compound 0.08 µM) was 0.721; with AZ505 + Alpelisib (first compound 0.253 µM) it was 0.698; in the assay with AZ505 + Alpelisib (first compound 0.8 µM), 0.599; in the assay with AZ505 + Alpelisib (first compound 2.53 µM), 0.671; in the assay with AZ505 + Alpelisib (first compound 8 µM), 0.761; in the assay with Dactolisib + Pemetrexed (first compound 0.002 µM) it was 0.24. Also, the relative viability turned out to be 0.266 with Dactolisib + Pemetrexed (first compound 0.006325 µM); 0.24 with Dactolisib + Pemetrexed (first compound 0.02 µM); 0.221 with Dactolisib + Pemetrexed (first compound 0.06325 µM); 0.25 in the assay with Dactolisib + Pemetrexed (first compound 0.2 µM); 0.865 in the assay with AZ505 (0.08 µM); 1.09 with AZ505 (0.253 µM). The relative viability is 1.07 with AZ505 (0.8 µM); 0.997 in the assay with AZ505 (2.53 µM); 1.24 in the assay with AZ505 (8 µM); 1.28 in the assay with Dactolisib (0.002 µM); 1.02 in the assay with Dactolisib (0.006325 µM); 0.925 in the assay with Dactolisib (0.02 µM). The relative viability amounted to 0.48 with Dactolisib (0.06325 µM) and 0.298 with Dactolisib (0.2 µM).

With LCLC-103H, the relative viability is 0.853 with AZ505 + Alpelisib (first compound 0.08 µM); 0.818 in the assay with AZ505 + Alpelisib (first compound 0.253 µM); 0.977 with AZ505 + Alpelisib (first compound 0.8 µM); 0.848 in the assay with AZ505 + Alpelisib (first compound 2.53 µM); 0.957 with AZ505 + Alpelisib (first compound 8 µM); 0.437 in the assay with Dactolisib + Pemetrexed (first compound 0.002 µM). The relative viability with Dactolisib + Pemetrexed (first compound 0.006325 µM) was found to be 0.468; in the assay with Dactolisib + Pemetrexed (first compound 0.02 µM) it was 0.462; in the assay with Dactolisib + Pemetrexed (first compound 0.06325 µM) it was 0.393; in the assay with Dactolisib + Pemetrexed (first compound 0.2 µM), 0.379; in the assay with AZ505 (0.08 µM), 0.989; with AZ505 (0.253 µM), 0.903. Further, the relative viability with AZ505 (0.8 µM) turned out to be 0.925; in the assay with AZ505 (2.53 µM) it was 1.02; with AZ505 (8 µM), 0.896; with Dactolisib (0.002 µM), 1.03; in the assay with Dactolisib (0.006325 µM), 0.95; in the assay with Dactolisib (0.02 µM), 0.964. Further, the relative viability with Dactolisib (0.06325 µM) is 0.785; with Dactolisib (0.2 µM) it was 0.624.

As to HCC-827, the relative viability with AZ505 + Alpelisib (first compound 0.08 µM) is 0.921; with AZ505 + Alpelisib (first compound 0.253 µM) it was 0.997; in the assay with AZ505 + Alpelisib (first compound 0.8 µM), 0.87; with AZ505 + Alpelisib (first compound 2.53 µM), 0.947; with AZ505 + Alpelisib (first compound 8 µM) it was 1.06; with Dactolisib + Pemetrexed (first compound 0.002 µM) it was 0.216. The relative viability came to 0.222 with Dactolisib + Pemetrexed (first compound 0.006325 µM); 0.219 with Dactolisib + Pemetrexed (first compound 0.02 µM); 0.213 with Dactolisib + Pemetrexed (first compound 0.06325 µM); 0.145 with Dactolisib + Pemetrexed (first compound 0.2 µM); 0.992 in the assay with AZ505 (0.08 µM); 1.03 in the assay with AZ505 (0.253 µM). For the same cell line, the relative viability turned out to be 0.982 in the assay with AZ505 (0.8 µM); 1.02 in the assay with AZ505 (2.53 µM); 1.08 in the assay with AZ505 (8 µM); 1.06 with Dactolisib (0.002 µM); 1.05 in the assay with Dactolisib (0.006325 µM); 0.955 with Dactolisib (0.02 µM). In addition, the relative viability with Dactolisib (0.06325 µM) was 1.07; in the assay with Dactolisib (0.2 µM), 1.03.

Consider NCI-H1355, for which the relative viability with AZ505 + Alpelisib (first compound 0.08 µM) is 0.775; with AZ505 + Alpelisib (first compound 0.253 µM) it was 0.769; with AZ505 + Alpelisib (first compound 0.8 µM) it was 0.834; with AZ505 + Alpelisib (first compound 2.53 µM), 0.65; in the assay with AZ505 + Alpelisib (first compound 8 µM) it was 0.902; with Dactolisib + Pemetrexed (first compound 0.002 µM), 1.08. Further, the relative viability is 1.03 in the assay with Dactolisib + Pemetrexed (first compound 0.006325 µM); 1.02 in the assay with Dactolisib + Pemetrexed (first compound 0.02 µM); 0.861 in the assay with Dactolisib + Pemetrexed (first compound 0.06325 µM); 0.65 in the assay with Dactolisib + Pemetrexed (first compound 0.2 µM); 0.928 in the assay with AZ505 (0.08 µM); 0.854 with AZ505 (0.253 µM). Besides, the relative viability in the assay with AZ505 (0.8 µM) came to 0.97; in the assay with AZ505 (2.53 µM), 0.936; with AZ505 (8 µM), 1.03; with Dactolisib (0.002 µM) it was 1.05; in the assay with Dactolisib (0.006325 µM), 0.925; in the assay with Dactolisib (0.02 µM) it was 0.915. The relative viability with Dactolisib (0.06325 µM) stood at 0.479; with Dactolisib (0.2 µM) it was 0.369.
